Experimental data as given in patent US5573772A, “Methods for protecting tissues and organs from ischemic damage” (priority 1994, dated 1996).
“Also recorded” adds a separate entry of the source.

Test system: isolated rabbit hearts
Experiment: Hemodynamic responses (heart rate, coronary flow, LVDP, AV conduction) in isolated perfused rabbit hearts, Example 1
Parameters: species or system rabbit (New Zealand white)
Details: for Hemodynamics, treatment alone: SPT or DPCPX alone
Experimental: These solutions were then diluted in Krebs buffer to the final concentration just before the experiments started. New Zealand white rabbits of either sex, between 1.4-2.4 kg, were anesthetized with intravenous sodium pentobarbital (30 mg/kg). The neck was opened and a tracheotomy was performed. The rabbits were ventilated with 100% oxygen via a positive pressure respirator (MD industries, Mobile, Ala.). Ventilation rate was 30-35 breaths per minute, and tidal volume was approximately 15 ml. A left thoracotomy was performed in the fourth intercostal space and pericardium was opened to expose the heart. A 2-0 silk suture with an RB taper needle was passed around a branch of the left coronary artery, and the end of the silk were threaded through a small vinyl tube to form a snare. The heads were quickly excised and mounted on a Langendorff apparatus and perfused at constant pressure with Krebs buffer containing (in mM) 118.5 NaCl, 4.7 KCl, 1.2 MgSO4, 1.2 K2 PO4, 24.3 NaHCO3, 2.5 CaCl2 and 10 glucose. […] The temperature of the perfusate was maintained at 37° C. The perfusion pressure was kept at 75 mm Hg. Pacing electrodes were placed on the right atrium and all hearts were paced at 200 beats/minute with pulses of 5 volts and 4 msec duration to keep the heart rate constant. A fluid-filled latex balloon connected to a transducer via PE240 tubing was inserted into the left ventricle. Balloon volume was adjusted to set the left ventricular diastolic pressure at 10 mm Hg at the beginning of the experiment. Total coronary artery flow was measured by timed collection of buffer from the chamber into a graduated cylinder. Regional ischemia was effected by pulling the snare tight and clamping the tube with a hemostat. Global ischemia was performed by clamping the inflow tubing of the Langendorff apparatus. Reperfusion was achieved by releasing the restriction. All hearts were allowed to equilibrate for 20 minutes before the experiments were started. Heart rate (HR), coronary flow (CF) and left ventricular developed pressure (LVDP) were recorded at the point just before and at the end of each treatment with the pacing momentarily turned off. The animals were divided into 10 groups. The hearts in all groups were subjected to 30 minutes of coronary branch occlusion followed by 120 minutes of reperfusion. Control group (CON, n=10) only experienced the above-mentioned 30 minutes of regional ischemia while the preconditioned group (PC, n=12) received an additional 5 minutes of global ischemia plus 10 minutes of reperfusion prior to the 30 minute occlusion. In the adenosine group (ADO, n=6) and the APNEA group (APNEA, n=5), the hearts were exposed to 10 uM adenosine and 50 nM APNEA respectively, for 5 minutes as a substitute for ischemic preconditioning. The drug was allowed to washout for 10 minutes before the 30 minute ischemia was started. In groups receiving SPT, the blocker was included in the perfusate for 15 minutes at 100 uM starting 5 minutes before the exposure of ADO (ADO-SPT group, n=6) or APNEA (APNEA-SPT group, n=5) or 5 minutes before and after 5 minutes of preconditioning ischemia (PC-SPT group, n=5). […] All results are expressed as group mean±SEM. The differences among groups was determined by a one-way analysis of variance with a Newman-Keuls post hoc test. A value of p<0.05 was considered to be significant. In order to ensure that the adenosinergic agents were active at the concentrations employed, hemodynamic responses were measured in a separate group of animals who experienced similar surgery described above except the coronary snare was not installed and therefore the second group of animals were not exposed to ischemia. The hearts were quickly excised and mounted on the Langendorff apparatus and perfused with Krebs buffer. The depressant effect of adenosine on atrioventricular (AV) conduction time was measured at a constant rate of atrial pacing, as an index of A 1-mediated activity. […]

For `Nc1ncnc2c1ncn2[C@@H]1O[C@H](CO)[C@@H](O)[C@H]1O` [ADO, Adenosine], the “HR and CF effects of ADO after washout” value (10 minutes of washout) was “completely disappeared”, the “Coronary flow (CF) after infusion” value (ADO 10 uM, 5 minutes, increased from 7.6±0.6 ml/g/min) was 10.3 ± 0.8 mL/g/min and the “Heart rate (HR) after infusion” value (ADO 10 uM, 5 minutes, significantly decreased from 176±8 beats/min) was 149±6 beats/minutes.
With `Nc1ccc(CCNc2ncnc3c2ncn3[C@@H]2O[C@H](CO)[C@@H](O)[C@H]2O)cc1` [APNEA, N^6-(2-(4-aminophenyl)ethyl) adenosine] the “Alteration of HR, CF or LVDP” value (APNEA 50 nM) was “did not significantly alter HR, CF or LVDP” and the “Activation of A1 or A2 adenosine receptors” value (APNEA 50 nM, inferred from hemodynamics) was “neither the A1 nor A2 adenosine receptors are activated”.
In the case of `CCCn1c(=O)c2[nH]c(C3CCCC3)nc2n(CCC)c1=O` [DPCPX, 8-cyclopentyl-1,3-dipropylxanthine], the “Blockade of adenosine's effect on heart rate” value (DPCPX 200 nM vs ADO) is reported as “eliminated the decrease in HR; also recorded: entirely blocked; also recorded: completely blocked”, the “Effect on increase in CF from ADO infusion” value (DPCPX 200 nM vs ADO) is reported as “did not affect the increase in CF” and the “Hemodynamics, treatment alone” value is reported as “only slightly affected”.
`Cn1c(=O)c2[nH]c(-c3ccc(S(=O)(=O)O)cc3)nc2n(C)c1=O` [SPT, 8-(p-Sulfophenyl)-theophylline] was tested, and the “Blockade of CF increase from ADO infusion” value (SPT 100 uM vs ADO) was “abolished”, the “Blockade of HR decrease from ADO infusion” value (SPT 100 uM vs ADO) was “abolished” and the “Hemodynamics, treatment alone” value was “only slightly affected”.
